# Test results published in patent US20220315621A1, “COMPOSITIONS AND METHODS FOR TREATING CNS DISORDERS” (priority 2017, published 2022).
# Target: TBPS binding
# Experiment: Steroid inhibition of TBPS binding
# Conditions: Table II-2; read-out: TBPS IC50 (μm)
row,Compound,IC50 [nM]
1,"CC(=O)[C@H]1CC[C@H]2[C@@H]3CC[C@@H]4CCC(=O)CC[C@@H]4[C@H]3CC[C@]12C [II-E7a, (1S,3aS,3bR,5aR,10aS,10bR,12aS)-1-acetyl-12a-methylhexadecahydrocyclohepta[a]cyclopenta[f]naphthalen-8(1H)-one]",1000 to 10000
2,"CC(=O)[C@H]1CC[C@H]2[C@@H]3CC=C4C[C@](C)(O)CCC[C@]4(C)[C@H]3CC[C@]12C [II-D2a, 1-((1S,3aS,3bS,7R,10aR,10bS,12aS)-7-hydroxy-7,10a,12a-trimethyl-1,2,3,3a,3b,4,6,7,8,9,10,10a,10b,11,12,12a-hexadecahydrocyclohepta[a]cyclopenta[f]naphthalen-1-yl)ethan-1-one]",1000 to 10000
3,"Cc1nnnn1CC(=O)[C@H]1CC[C@H]2[C@@H]3CC[C@@H]4CC[C@](C)(O)CC[C@@H]4[C@H]3CC[C@]12C [II-F13, 1-((1S,3aS,3bR,5aR,8S,10aS,10bR,12aS)-8-hydroxy-8,12a-dimethyloctadecahydrocyclohepta[a]cyclopenta[f]naphthalen-1-yl)-2-(5-methyl-1H-tetrazol-1-yl)ethan-1-one]",1000 to 10000
4,"Cc1nnnn1CC(=O)[C@H]1CC[C@H]2[C@@H]3CC=C4CC[C@](C)(O)CC[C@]4(C)[C@H]3CC[C@]12C [II-F7, 1-((1S,3aS,3bS,8S,10aR,10bS,12aS)-8-hydroxy-8,10a,12a-trimethyl-1,2,3,3a,3b,4,6,7,8,9,10,10a,10b,11,12,12a-hexadecahydrocyclohepta[a]cyclopenta[f]naphthalen-1-yl)-2-(5-methyl-1H-tetrazol-1-yl)ethan-1-one]",10 to 100
5,"CC(=O)[C@H]1CC[C@H]2[C@@H]3CC[C@H]4C[C@](C)(O)CCC[C@]4(C)[C@H]3CC[C@]12C [II-D3a, 1-((1S,3aS,3bR,5aS,7R,10aS,10bS,12aS)-7-hydroxy-7,10a,12a-trimethyloctadecahydrocyclohepta[a]cyclopenta[f]naphthalen-1-yl)ethan-1-one]",1000 to 10000
6,"C[C@]12CC[C@@H]3[C@H]4CC[C@](C)(O)[C@@H]4CC[C@H]3[C@@H]1CC[C@@H]2C(=O)Cn1cc(C#N)cn1 [II-H19, 1-(2-((1S,3aS,3bR,5aR,6S,8aR,8bS,10aS)-6-hydroxy-6,10a-dimethylhexadecahydrodicyclopenta[a,f]naphthalen-1-yl)-2-oxoethyl)-1H-pyrazole-4-carbonitrile]",1000 to 10000
7,"COC[C@]1(O)C[C@H]2CC[C@@H]3[C@H](CC[C@]4(C)[C@@H](C(=O)Cn5cc(C#N)cn5)CC[C@@H]34)[C@H]2C1 [II-J11, 1-(2-((1S,3aS,3bR,5aR,7S,8aS,8bR,10aS)-7-hydroxy-7-(methoxymethyl)-10a-methylhexadecahydrodicyclopenta[a,f]naphthalen-1-yl)-2-oxoethyl)-1H-pyrazole-4-carbonitrile]",100 to 1000
8,"C[C@@]1(O)CCC[C@H]2[C@H](CC[C@@H]3[C@@H]2CC[C@]2(C)[C@@H](C(=O)Cn4cc(C#N)cn4)CC[C@@H]32)C1 [II-E10a, 1-(2-((1S,3aS,3bR,5aR,7R,10aS,10bR,12aS)-7-hydroxy-7,12a-dimethyloctadecahydrocyclohepta[a]cyclopenta[f]naphthalen-1-yl)-2-oxoethyl)-1H-pyrazole-4-carbonitrile]",10 to 100
9,"CC(=O)[C@H]1CC[C@H]2[C@@H]3CC[C@@H]4C[C@](C)(O)C[C@@H]4[C@H]3CC[C@]12C [II-G8, 1-((1S,3aS,3bR,5aR,7S,8aS,8bR,10aS)-7-hydroxy-7,10a-dimethylhexadecahydrodicyclopenta[a,f]naphthalen-1-yl)ethan-1-one]",100 to 1000
10,"CC(=O)[C@H]1CC[C@H]2[C@@H]3CC=C4CC[C@@](C)(O)CC[C@]4(C)[C@H]3CC[C@]12C [II-C2b, 1-((1S,3aS,3bS,8R,10aR,10bS,12aS)-8-hydroxy-8,10a,12a-trimethyl-1,2,3,3a,3b,4,6,7,8,9,10,10a,10b,11,12,12a-hexadecahydrocyclohepta[a]cyclopenta[f]naphthalen-1-yl)ethan-1-one]",1000 to 10000
11,"Cc1nnn(CC(=O)[C@H]2CC[C@H]3[C@@H]4CC[C@H]5CC[C@](C)(O)CC[C@]5(C)[C@H]4CC[C@]23C)n1 [II-C11, 1-((1S,3aS,3bR,5aS,8S,10aS,10bS,12aS)-8-hydroxy-8,10a,12a-trimethyloctadecahydrocyclohepta[a]cyclopenta[f]naphthalen-1-yl)-2-(5-methyl-2H-tetrazol-2-yl)ethan-1-one]",10 to 100
12,"Cc1nnn(CC(=O)[C@H]2CC[C@H]3[C@@H]4CC[C@@H]5CC[C@](C)(O)CC[C@@H]5[C@H]4CC[C@]23C)n1 [II-F12, 1-((1S,3aS,3bR,5aR,8S,10aS,10bR,12aS)-8-hydroxy-8,12a-dimethyloctadecahydrocyclohepta[a]cyclopenta[f]naphthalen-1-yl)-2-(5-methyl-2H-tetrazol-2-yl)ethan-1-one]",100 to 1000
13,"CC(=O)[C@H]1CC[C@H]2[C@@H]3CC=C4CC[C@](C)(O)CC[C@]4(C)[C@H]3CC[C@]12C [II-C2a, 1-((1S,3aS,3bS,8S,10aR,10bS,12aS)-8-hydroxy-8,10a,12a-trimethyl-1,2,3,3a,3b,4,6,7,8,9,10,10a,10b,11,12,12a-hexadecahydrocyclohepta[a]cyclopenta[f]naphthalen-1-yl)ethan-1-one]",10 to 100
14,"CC(=O)[C@H]1CC[C@H]2[C@@H]3CC[C@@H]4CC(=O)CCC[C@@H]4[C@H]3CC[C@]12C [II-E7b, (1 S,3aS,3bR,5aR,10aS,10bR,12aS)-1-acetyl-12a-methylhexadecahydrocyclohepta[a]cyclopenta[f]naphthalen-7(1H)-one]",1000 to 10000
15,"C[C@]1(O)C[C@H]2CC[C@@H]3[C@H](CC[C@]4(C)[C@@H](C(=O)Cn5ccnn5)CC[C@@H]34)[C@H]2C1 [II-G12, 1-((1S,3aS,3bR,5aR,7S,8aS,8bR,10aS)-7-hydroxy-7,10a-dimethylhexadecahydrodicyclopenta[a,f]naphthalen-1-yl)-2-(1H-1,2,3-triazol-1-yl)ethan-1-one]",100 to 1000
16,"Cc1nnnn1CC(=O)[C@H]1CC[C@H]2[C@@H]3CC[C@H]4CC[C@](C)(O)CC[C@]4(C)[C@H]3CC[C@]12C [II-C10, 1-((1S,3aS,3bR,5aS,8S,10aS,10bS,12aS)-8-hydroxy-8,10a,12a-trimethyloctadecahydrocyclohepta[a]cyclopenta[f]naphthalen-1-yl)-2-(5-methyl-1H-tetrazol-1-yl)ethan-1-one]",100 to 1000
17,"C[C@]1(O)CCC[C@H]2[C@H](CC[C@@H]3[C@@H]2CC[C@]2(C)[C@@H](C(=O)Cn4cc(C#N)cn4)CC[C@@H]32)C1 [II-E10, 1-(2-((1S,3aS,3bR,5aR,7S,10aS,10bR,12aS)-7-hydroxy-7,12a-dimethyloctadecahydrocyclohepta[a]cyclopenta[f]naphthalen-1-yl)-2-oxoethyl)-1H-pyrazole-4-carbonitrile]",100 to 1000
18,"CC(=O)[C@H]1CC[C@H]2[C@@H]3CC[C@@H]4[C@H](CC[C@@]4(C)O)[C@H]3CC[C@]12C [II-H11, 1-((1S,3aS,3bR,5aR,6R,8aR,8bS,10aS)-6-hydroxy-6,10a-dimethylhexadecahydrodicyclopenta[a,f]naphthalen-1-yl)ethan-1-one]",1000 to 10000
19,"C[C@]1(O)CCC2=CC[C@H]3[C@@H]4CC[C@H](C(=O)Cn5cc(C#N)cn5)[C@@]4(C)CC[C@@H]3[C@@]2(C)CC1 [II-F3, 1-(2-((1S,3aS,3bS,8S,10aR,10bS,12aS)-8-hydroxy-8,10a,12a-trimethyl-1,2,3,3a,3b,4,6,7,8,9,10,10a,10b,11,12,12a-hexadecahydrocyclohepta[a]cyclopenta[f]naphthalen-1-yl)-2-oxoethyl)-1H-pyrazole-4-carbonitrile]",< 10
20,"C[C@@]1(O)CCC[C@@]2(C)[C@@H](CC[C@@H]3[C@@H]2CC[C@]2(C)[C@@H](C(=O)Cn4cc(C#N)cn4)CC[C@@H]32)C1 [II-D5a, 1-(2-((1S,3aS,3bR,5aS,7R,10aS,10bS,12aS)-7-hydroxy-7,10a,12a-trimethyloctadecahydrocyclohepta[a]cyclopenta[f]naphthalen-1-yl)-2-oxoethyl)-1H-pyrazole-4-carbonitrile]",10 to 100
21,C[C@]1(O)C[C@H]2CC[C@@H]3[C@H](CC[C@]4(C)[C@@H](C(=O)Cn5cc(C#N)cn5)CC[C@@H]34)[C@H]2C1 [II-G10],100 to 1000

# Same assay, conditions: Table IV-2; read-out: TBPS IC50
row,Compound,IC50 [nM]
1,"C[C@@]1(O)CC[C@H]2[C@@H](C[C@@H]3[C@@H]2CC[C@]2(C)[C@@H](C(=O)Cn4cc(C#N)cn4)CC[C@@H]32)C1 [IV-B9, 1-(2-((3S,3aS,5aR,5bS,8R,9aS,10aR,10bS)-8-hydroxy-3a,8-dimethylhexadecahydrocyclopenta[a]fluoren-3-yl)-2-oxoethyl)-1H-pyrazole-4-carbonitrile]",10 to 100

# Same assay, conditions: Table V-2; read-out: TBPS IC50
row,Compound,IC50 [nM]
1,"CC(=O)[C@H]1CC[C@H]2[C@@H]3CC[C@H]4C[C@](C)(O)CC[C@]4(C)[C@H]3CCC[C@]12C [V-A8, 1-((3aS,4S,6aS,6bR,8aS,10R,12aS,12bS)-10-hydroxy-3a,10,12a-trimethyloctadecahydronaphtho[2,1-e]azulen-4-yl)ethan-1-one]",100 to 1000
2,"C[C@@]1(O)CC[C@@]2(C)[C@@H](CC[C@@H]3[C@@H]2CCC[C@]2(C)[C@@H](C(=O)Cn4cc(C#N)cn4)CC[C@@H]32)C1 [V-A10, 1-(2-((3aS,4S,6aS,6bR,8aS,10R,12aS,12bS)-10-hydroxy-3a,10,12a-trimethyloctadecahydronaphtho[2,1-e]azulen-4-yl)-2-oxoethyl)-1H-pyrazole-4-carbonitrile]",100 to 1000
